Results reported in patent US20230348421A1, “5-HT2A RECEPTOR INHIBITOR OR INVERSE AGONIST, PREPARATION METHOD THEREFOR, AND APPLICATION THEREOF” (GENEORA PHARMA (SHIJIAZHUANG) CO., LTD., priority 2020, published 2023).
pIC50: −log10 of the molar value. Like-named read-outs stand apart in the source and are kept apart here.

How the values were obtained:
5-HT2A receptor [1] = biological target: T1, 5-HT2A receptor (Homo sapiens (Human), UniProt P28223); test: Test for 5-HT2A antagonistic activity (calcium ion antagonism, FLIPR, CHO-K1/5-HT2A cells); format: cell-based; conditions: 100 nM a-methyl-5-HT, Ca2+ signal
Method: • Cell lines: CHO-K1/5-HT2A (Chempartner) • Cell culture medium: DMEM/F12+10% FBS (purchased from GBICO) • Cell culture plate: 384-well Assay Plate (purchased from Corning) • Detection kit: FLIPR® Calcium 4 Assay Kit (purchased from Molecular Devices)
After that, centrifugation was performed to remove the culture medium in the cell culture plate. Dye was added, and the cells were incubated in a 37° C., 5% CO2 incubator for another 1 h. The cell culture plate was placed on the FLIPR. A compound to be tested was added, and the Ca^2+ signal was detected, wherein the compound to be tested was subjected to 3-fold gradient dilution with PBS to obtain 10 concentrations, with the highest concentration of 10 uM, and double replicate wells were set up. […] In order to determine the test stability, risperidone was used as a positive control. The data were processed with GraphPad Prism 7.0 to obtain a cell inhibition rate curve, and the IC50 was calculated.
Inhibition rate (%)=100%−[(signal value of the compound to be tested−signal value of the test solution)/(the maximum signal value−the signal value of the test solution)]×100%

5-HT2A receptor [2] = biological target: T1, 5-HT2A receptor; test: Screening for 5-HT2A inverse agonistic activity (NIH3T3-5-HT2A R cells, Bright-Glo luciferase, 120 h); format: cell-based; conditions: NIH3T3-5HT2AR cells, cell inhibition rate
Method: • Cell lines: Adherent cells NIH3T3-5-HT2A R • Cell culture medium: DMEM+10% FBS (purchased from GBICO) • Cell culture plate: White-wall clear-bottom 96-well plate (purchased from Perkin Elmer) • Detection kit: Bright-Glo™ Luciferase (purchased from Promega) • Detection instrument: BioTek multifunctional microplate reader
NIH3T3-5HT2AR cells in the logarithmic growth phase were seeded into a white-wall clear-bottom 96-well plate at a density of 1000 cells per well, and cultured overnight in a 37° C., 5% CO2 incubator. […] On the sixth day, a Bright-Glo™ Luciferase reagent with a volume equal to that of cell sap was added to the cells, and the cells were incubated at room temperature in the dark for 20 min. […] The data was processed with GraphPad Prism 7.0 to obtain a cell inhibition rate curve, and the IC50 was calculated.
Cell inhibition rate (%)=[100−(Lum test drug−Lum culture solution)/(Lum cell control−Lum culture solution)×100]%

hERG potassium channels = hERG potassium channels (Homo sapiens (Human), UniProt Q12809); test: hERG inhibitory activity, whole-cell patch clamp in CHO-hERG cells
Method: • Name: Dimethyl sulfoxide (DMSO)
• Species & strains: CHO-hERG cell lines (Chinese hamster ovary cells stably expressing hERG channels) • Culture medium: 90% F12, 10% fetal bovine serum, 100 μg/mL G418 and 100 μg/mL hygromycin B • Culture conditions: 5% CO2, 37° C. incubator • Freezing conditions: Liquid nitrogen
Digestion was performed at room temperature for 3-5 min. The digestion solution was pipetted, and the cells were resuspended in extracellular fluid and transferred to an experimental dish for electrophysiological recording for later use.
On the day of the test, the compound was diluted with DMSO to an intermediate concentration. 10 μL of compound with the intermediate concentration was taken, transferred to 4990 μL of extracellular fluid, and subjected to 500-fold dilution to obtain a final concentration to be tested.
CHO (Chinese Hamster Ovary) cells stably expressing hERG potassium channels were taken, and hERG potassium channel currents were recorded at room temperature by means of a whole-cell patch-clamp technique. A glass microelectrode was formed by pulling a glass electrode blank (BF150-86-10, Sutter) with a glass microelectrode puller. The tip resistance was about 2-5 MΩ after perfusion of a pippette solution. The glass microelectrode could be connected to a patch clamp amplifier by inserting the glass microelectrode into an amplifier probe. Clamping voltages and data recording were controlled and recorded by a computer with pClamp 10 software, with a sampling frequency of 10 kHz and a filtering frequency of 2 kHz. After the whole-cell recording was obtained, the cells were clamped at −80 mV, and the step voltage evoking hERG potassium current (I hERG) was changed from −80 mV to +20 mV by giving a 2 s depolarization voltage and then repolarized to −50 mV for 1 s, and returned to −80 mV. Such voltage stimulation was given every 10 s, and the administration process was started after it was determined that the hERG potassium currents were stable (1 min). The compound at each test concentration was given at least 1 min, and at least 2 cells (n≥2) were tested for each concentration.
Data analysis was performed by means of pClamp 10 and GraphPad Prism 5.0 software.
The formula for calculating the degree of inhibition of different compound concentrations on hERG potassium currents (the hERG tail current peak value evoked at −50 mV) was:
Y=Bottom+(Top−Bottom)/(1+10^((LogIC50−X)*HillSlope))
wherein X is a Log value of a test concentration of a test sample, Y is the inhibition percentage at a corresponding concentration, and Bottom and Top are the minimum inhibition percentage and the maximum inhibition percentage, respectively.

[3] = read-out: hERG inhibitory activity IC50, CHO-hERG cells, whole-cell patch clamp, tail current at -50 mV

Sequence of hERG potassium channels (Q12809 whole entry): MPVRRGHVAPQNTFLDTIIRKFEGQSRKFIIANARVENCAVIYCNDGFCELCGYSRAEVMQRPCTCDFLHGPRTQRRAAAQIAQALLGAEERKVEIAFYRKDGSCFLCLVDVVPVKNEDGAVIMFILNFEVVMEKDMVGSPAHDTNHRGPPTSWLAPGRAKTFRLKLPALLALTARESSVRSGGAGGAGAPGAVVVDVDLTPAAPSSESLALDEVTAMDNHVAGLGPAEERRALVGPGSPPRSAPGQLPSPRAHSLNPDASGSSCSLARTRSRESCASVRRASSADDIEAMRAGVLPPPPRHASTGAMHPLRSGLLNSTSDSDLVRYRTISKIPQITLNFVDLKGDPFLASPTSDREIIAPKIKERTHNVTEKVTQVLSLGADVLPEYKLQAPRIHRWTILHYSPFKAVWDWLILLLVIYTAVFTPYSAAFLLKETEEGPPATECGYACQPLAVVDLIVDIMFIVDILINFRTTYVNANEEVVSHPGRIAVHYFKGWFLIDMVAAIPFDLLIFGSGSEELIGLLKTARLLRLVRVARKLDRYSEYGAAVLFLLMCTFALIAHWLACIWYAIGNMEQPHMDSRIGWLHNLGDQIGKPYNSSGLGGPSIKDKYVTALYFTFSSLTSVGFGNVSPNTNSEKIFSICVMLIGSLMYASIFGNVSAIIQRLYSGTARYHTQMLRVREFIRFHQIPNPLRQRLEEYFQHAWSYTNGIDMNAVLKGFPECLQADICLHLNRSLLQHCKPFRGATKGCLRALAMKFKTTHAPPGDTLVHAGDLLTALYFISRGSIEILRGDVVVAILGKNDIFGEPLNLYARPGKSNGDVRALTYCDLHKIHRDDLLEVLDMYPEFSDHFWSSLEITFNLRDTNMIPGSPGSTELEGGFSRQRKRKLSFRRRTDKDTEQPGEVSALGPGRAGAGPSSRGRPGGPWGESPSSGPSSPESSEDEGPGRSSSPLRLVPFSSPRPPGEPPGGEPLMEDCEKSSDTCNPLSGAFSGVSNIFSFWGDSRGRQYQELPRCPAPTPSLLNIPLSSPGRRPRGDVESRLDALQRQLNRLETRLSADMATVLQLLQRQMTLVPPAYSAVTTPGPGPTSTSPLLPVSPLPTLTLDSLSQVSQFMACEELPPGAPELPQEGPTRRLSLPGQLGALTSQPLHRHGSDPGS
T1 sequence (P28223 whole entry): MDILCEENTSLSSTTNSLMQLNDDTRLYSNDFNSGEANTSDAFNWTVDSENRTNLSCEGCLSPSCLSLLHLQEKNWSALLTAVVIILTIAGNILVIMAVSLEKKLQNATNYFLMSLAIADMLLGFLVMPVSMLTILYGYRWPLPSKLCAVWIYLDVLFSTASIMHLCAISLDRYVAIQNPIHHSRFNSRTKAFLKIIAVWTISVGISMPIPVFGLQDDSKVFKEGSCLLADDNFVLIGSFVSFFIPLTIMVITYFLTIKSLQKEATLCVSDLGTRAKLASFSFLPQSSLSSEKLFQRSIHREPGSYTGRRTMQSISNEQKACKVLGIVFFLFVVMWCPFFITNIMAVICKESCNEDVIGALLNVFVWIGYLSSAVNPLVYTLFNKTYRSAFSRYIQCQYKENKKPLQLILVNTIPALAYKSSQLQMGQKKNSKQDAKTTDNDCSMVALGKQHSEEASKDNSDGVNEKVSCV

SMILES	pIC50 (5-HT2A receptor [1])	pIC50 (5-HT2A receptor [2])	pIC50 (hERG potassium channels; [3])	pIC50 (hERG potassium channels)
CN1CCC(N(Cc2ccc(F)cc2F)C(=O)NCc2ccc(OCC(F)F)cc2)CC1 [Compound 74]	8.05	–	–	–
CC(C)CCc1ccc(CNC(=O)N(Cc2ccc(F)cn2)C2CCN(C)CC2)cc1 [Compound 52]	–	7.37	–	–
CN1CCC(N(Cc2ccc(F)cn2)C(=O)NCc2ccc(OCC(F)(F)F)c(F)c2)CC1 [Compound 26]	8.16	8.01	6.28	–
CN1CCC(N(Cc2ccc(F)cn2)C(=O)NCc2ccc(OCCC(F)F)cc2)CC1 [Compound 92]	8.33	8.18	–	–
CC(C)COc1ccc(CNC(=O)N(Cc2ccc(F)cc2)C2CCN(C)CC2)nc1 [Compound 19]	8.16	7.30	6.32	–
CCN1CCC(N(Cc2ccc(F)cn2)C(=O)NCc2ccc3c(c2)CC(C)(C)O3)CC1 [Compound 48]	8.50	7.65	5.62	–
CC(C)COc1ccc(CNC(=O)N(Cc2ccc(F)nn2)C2CCN(C)CC2)cc1 [Compound 91]	7.83	–	6.24	–
CN1CCC(N(Cc2ccc(F)cn2)C(=O)NCc2ccc(O)cc2)CC1 [Compound 3]	7.94	–	< 5.00	–
CN1CCC(N(Cc2ccc(F)cc2)C(=O)NCc2ccc(OCC(F)(F)F)cc2)CC1 [Compound 65]	8.10	7.74	6.17	–
CN1CCC(N(Cc2ccc(F)cc2)C(=O)NCc2ccc3c(c2)CC(C)(C)O3)CC1 [Compound 31]	7.76	7.52	5.73	–
CN1CCC(N(Cc2ccc(F)cn2)C(=O)NCc2ccc(OCCCC(F)F)cc2)CC1 [Compound 94]	8.37	8.12	–	–
CN1CCC(N(Cc2ccc(F)cn2)C(=O)NCc2ccc(OCCCCF)cc2)CC1 [Compound 62]	8.63	7.48	5.84	–
CN1CCC(N(Cc2ccc(F)cn2)C(=O)NCc2ccc3c(c2)CCC(C)(C)O3)CC1 [Compound 98]	7.67	–	5.84	–
CC(C)c1cc2cc(CNC(=O)N(Cc3ccc(F)cn3)C3CCN(C)CC3)ccc2o1 [Compound 50]	7.68	–	6.26	–
CN1CCC(N(Cc2ncc(F)cc2F)C(=O)NCc2ccc(OC(C)(C)C)cc2)CC1 [Compound 81]	8.56	7.52	6.17	–
CN1CCC(N(Cc2ccc(F)cn2)C(=O)NCc2ccc3c(c2)CCO3)CC1 [Compound 46]	8.38	7.96	4.98	–
CN1CCC(N(Cc2ccc(F)cn2)C(=O)NCc2ccc(OCC(C)(C)F)cc2)CC1 [Compound 47]	8.50	8.04	5.86	–
CC(C)COc1ccc(CNC(=O)N(CCCN(C)C)Cc2ccc(F)cc2)cc1 [Compound 14]	8.66	–	–	–
CC(C)COc1ccc(CNC(=O)N(Cc2ccc(F)cn2)C2CCN(CC3CCCCC3)CC2)cc1 [Compound 63]	–	7.68	–	–
CN1CCC(N(Cc2ccc(F)cn2)C(=O)NCc2ccc(OC(F)(F)C(F)(F)F)cc2)CC1 [Compound 38]	–	8.00	–	–
CN1CCC(N(Cc2ccc(F)cc2)C(=O)NCc2ccc(OCCF)cc2)CC1 [Compound 56]	8.24	8.00	–	–
CN1CCC(N(Cc2ccc(F)cn2)C(=O)NCc2ccc(OC(C)(C)C)cc2)CC1 [Compound 18]	8.24	8.95	6.07	–
CCN1CCC(N(Cc2ccc(F)cn2)C(=O)NCc2ccc(OCC(F)(F)F)cc2)CC1 [Compound 70]	8.09	7.91	6.30	–
CN1CCC(N(Cc2ccc(F)cn2)C(=O)NCc2ccc3c(c2)C=CC(C)(C)O3)CC1 [Compound 99]	7.76	7.48	6.19	–
CN1CCC(N(Cc2ccc(F)cn2)C(=O)NCc2ccc(OCCCC(F)(F)F)cc2)CC1 [Compound 82]	8.42	8.71	6.30	–

SMILES	pIC50 (5-HT2A receptor [1])	pIC50 (5-HT2A receptor [2])	pIC50 (hERG potassium channels; [3])	pIC50 (hERG potassium channels)
CC(C)COc1ccc(CNC(=O)N(Cc2ncc(F)cn2)C2CCN(C)CC2)cc1 [Compound 13]	8.72	–	5.89	–
CN1CCC(N(Cc2ccc(F)cn2)C(=O)NCc2cc(Br)c3c(c2)CC(C)(C)O3)CC1 [Compound 77]	8.18	8.19	–	–
CC(C)C(O)Cc1ccc(CNC(=O)N(Cc2ccc(F)cc2)C2CCN(C)CC2)cc1 (stereo not drawn) [Compound 25]	8.17	7.77	5.99	–
CN1CCC(N(Cc2ccc(F)cn2)C(=O)NCc2ccc(OCCC(F)(F)F)cc2)CC1 [Compound 55]	8.33	8.65	6.16	–
CN1CCC(N(Cc2ncc(F)cc2F)C(=O)NCc2ccc3c(c2)CC(C)(C)O3)CC1 [Compound 61]	8.48	7.51	5.59	–
CN1CCC(N(Cc2ccc(F)cn2)C(=O)NCc2ccc(OC(CF)CF)cc2)CC1 [Compound 45]	8.62	8.15	5.26	–
CC(C)C1Cc2cc(CNC(=O)N(Cc3ccc(F)cn3)C3CCN(C)CC3)ccc2O1 (stereo not drawn) [Compound 41]	8.00	8.37	6.10	–
CN1CCC(N(Cc2ccc(F)cc2F)C(=O)NCc2ccc3c(c2)CC(C)(C)O3)CC1 [Compound 76]	7.68	–	–	–
CN1CCC(N(Cc2ncc(F)cc2F)C(=O)NCc2ccc(OCCCC(F)F)cc2)CC1 [Compound 95]	8.29	7.55	–	–
CC(C)COc1ccc(CNC(=O)N(Cc2ccc(F)cn2)C2CCN(C)CC2)cc1 [Compound 1]	8.06	7.64	6.39	–
CN1CCC(N(Cc2ccc(F)cc2F)C(=O)NCc2ccc(OCCF)cc2)CC1 [Compound 75]	8.08	7.84	–	–
CC(C)OCc1ccc(CNC(=O)N(Cc2ccc(F)cc2)C2CCN(C)CC2)cc1 [Compound 21]	8.68	7.47	6.04	–
CC(C)COc1ccc(CNC(=O)N(Cc2ccc(F)cn2)C2CCN(C)CC2)nc1 [Compound 96]	7.94	7.58	–	–
CCOc1ccc(CNC(=O)N(Cc2ccc(F)cn2)C2CCN(C)CC2)cc1 [Compound 49]	8.39	8.14	5.61	–
CN1CCC(N(Cc2ccc(F)cn2)C(=O)NCc2ccc(OCCF)cc2)CC1 [Compound 60]	8.68	7.79	< 5.00	–
CN1CCC(N(Cc2ccc(F)cn2)C(=O)NCc2ccc(OCC(F)F)cc2)CC1 [Compound 78]	8.66	8.22	5.76	–
CC(C)COc1ccc(CNC(=O)N(Cc2ccc(F)cc2)C2CCN(C)CC2)cn1 [Compound 20]	8.04	–	6.17	–
CC1(C)Cc2cc(CNC(=O)N(Cc3ccc(F)cn3)C3CCNCC3)ccc2O1 [Compound 23]	8.22	8.25	< 5.00	–
CC(C)OCc1ccc(CNC(=O)N(Cc2ccc(F)cn2)C2CCN(C)CC2)cc1 [Compound 37]	8.69	7.37	5.40	–
CN1CCC(N(Cc2ccc(F)cn2)C(=O)NCc2cc(Cl)c3c(c2)CC(C)(C)O3)CC1 [Compound 71]	8.02	–	5.48	–
CN1CCC(N(Cc2ccc(F)cn2)C(=O)NCc2ccc3c(c2)CC(C)(C)O3)CC1 [Compound 24]	8.46	8.60	5.44	–
CN1CCC(N(Cc2ccc(F)cc2)C(=O)NCc2ccc(OCC(F)F)cc2)CC1 [Compound 57]	8.19	8.17	–	–
CN1CCC(N(Cc2ncc(F)cc2F)C(=O)NCc2ccc(OCCC(F)F)cc2)CC1 [Compound 93]	8.37	7.98	–	–
CN1CCC(N(Cc2ccc(F)cn2)C(=O)NCc2ccc(OCCCF)cc2)CC1 [Compound 17]	–	–	–	5.81
